PMC6405172, “In vitro activity and mode of action of phenolic compounds on Leishmania donovani” (PLoS Neglected Tropical Diseases, 2019)

Assays:
[1] = system: L. donovani promastigotes; assay: Promastigote mitochondria integrity (MitoTracker Red CMXROS); format: cell-based, Leishmania donovani; conditions: 24 hours; 2x IC50 (amphotericin B 1/2 IC50)
Procedure: After incubation, the promastigotes were harvested and resuspended in serum-free M199/1%BSA. MitoTracker Red CMXROS (a cationic fluorescent dye that labels the mitochondria within live cells) at 100 nM was added and incubated for 30 min. Parasites were washed once with serum-free M199/1% BSA, pelleted by centrifugation at 1500 rpm for 10 min, resuspended in 1x vPBS and 6% paraformaldehyde and incubated at 4°C for 1 hour. The promastigote pellets were washed twice and resuspended in 1xPBS. The parasites were then allowed to settle on poly-L-lysine coated slides and DAPI stain (0.1μg/mL) was added followed by one wash in 1x PBS. Coverslips were mounted onto the slides using Vectashield mounting media and observed under the Olympus fluorescent microscope to detect any abnormalities in the structure of the mitochondria. The total number of parasites was determined by direct counting of parasites per field, using ImageJ Software. Parasites with distorted mitochondria were visually determined by counting parasites that had any abnormalities in the structure of the mitochondria compared to the untreated control.

[2] = system: L. donovani promastigotes; assay: Cell cycle analysis by flow cytometry; format: cell-based, Leishmania donovani; conditions: 24 hours; for increase in G0/G1 cells / decrease in the number of parasites at the M phase: 2x IC50 (amphotericin B 1/2 IC50); for increase in G0/G1 cells: versus untreated 34.6%
Procedure: Cell cycle analysis of treated and untreated L. donovani promastigotes was performed using flow cytometry. […] The fixed cells were harvested, resuspended in 1x PBS for 1 min and washed twice in 1x PBS. Staining solution (Guava cell cycle reagent) was added and incubated at room temperature for 30 min. The percentage cell count in G0, G1, S, G2 and M phases of the cell cycle were determined with BD LSR Fortessa™^. X-20 analyzer (BD Biosciences) and data was analyzed with FlowJo software.

[3] = system: Leishmania donovani promastigotes; assay: Parasite growth analysis (trypan blue counting); format: cell-based; conditions: IC50 concentrations; for decrease in the number of promastigotes: at 48 hours
Procedure: The dose dependent inhibition of phenolic compounds on promastigotes was determined by culturing promastigotes (2 x 10^5 cells) in freshly prepared M199 medium in the presence and absence of varying concentration of the test compounds, apigenin (IC50, 2x IC50, 4x IC50), rosmarinic acid (IC50, 2x IC50, 4x IC50), amphotericin B (1/2 IC50, IC50) and deferoxamine (IC50, 2x IC50, 4x IC50), for 120 hours. The number of parasites was determined by staining with trypan blue every 24 hours. Quantification of the viable parasites was determined by counting the parasites with the clear cytoplasm (non-stained) using a Neubauer hemocytometer with a cover slip. Three independent experiments were performed, and data expressed as mean ± standard deviation.

[4] = Cytotoxicity of compounds on mammalian cells (MTT); format: cell-based; conditions: mouse, Raw 264.7 macrophage cells, Raw 264.7 cells, read-out: Macrophages CC50 (μM) ±SD
Procedure: Raw 264.7 cells were seeded into 96-well plates at (1 x 10^6 cells) in DMEM supplemented with 10% FBS, 100 μg/mL streptomycin, 100 u/mL penicillin-G, 2g/L NaHCO3 and incubated at 37°C for 24 hours in 5% CO2. The cells were treated with 0–50 μg/mL concentrations of the phenolic compounds for 48 hours at 37°C in 5% CO2. Deferoxamine and amphotericin B at 0–50 μg/mL concentrations were used as positive controls. Cell viability was estimated by measuring the mitochondria oxidative activity by MTT assay and absorbance was read at 570 nm using Thermo Scientific Varioskan LUX. Selectivity index (SI) was calculated as the ratio of the CC50 to IC50 values.

[5] = system: Leishmania iron transporter 1 (LIT1); assay: RT-qPCR mRNA expression of LIT1; format: cell-based, Leishmania donovani; conditions: promastigotes, 24 hours; for LIT1 Relative quantity: Fig 7A
Procedure: Promastigotes (1 x 10^7 cells) were separately treated with rosmarinic acid, apigenin, amphotericin B and deferoxamine, harvested after 24 hours incubation at 25°C. The parasites were then pelleted by centrifugation at 239 × g for 10 min and the pellet was re-suspended in 1 mL TRIzol. Samples were incubated overnight at -80°C and total RNA was extracted as described by the manufacturer’s protocol using Quick-RNA MiniPrep Plus (Zymo Research, USA). Purity of total RNA was determined to be approximately 2.0 using a Nanodrop. The oligonucleotide primers for the amplification of the iron dependent enzymes—ribonucleotide reductase (RNR) (3’[…] and 5’CAACAACTTCTGCGCATCG), iron superoxide dismutase A (FeSOD) (3’[…] and 5’[…]) and Leishmania iron transporter 1 (LIT1) (3’[…] and 5’ […]) were designed using sequences of Leishmania reference genome from tritrypdb.org (http://tritrypdb.org/tritrypdb/) and Primer 3 software. The oligonucleotide primers used in amplifying the housekeeping gene Histone 2A were (3’ […] and 5’[…]). The RT-qPCR reaction was conducted as described by manufacturer’s protocol with final concentrations of oligonucleotide primers as 0.4 μM, 1x Luna Universal One-Step Reaction mix, 1x Luna WarmStart RT Enzyme Mix and template RNA ≤ 1 μg. All the RT-PCR products were standardized with respect to the endogenous control, Histone 2A. The levels of the mRNA transcripts were obtained using the QuantStudio 5 Real-Time PCR System (Applied Biosystems). The data represent three independent experiments done in triplicate and a fold change in gene expression of >2 was considered significant.

Compound | promastigotes with mitotracker dye accumulating in the cytoplasm (distorted mitochondrion) [1] | increase in G0/G1 cells [2] | change in the number of parasites at the S phase ([2]; versus untreated) | reduction in the number of parasites ([3]; at 24 hours) | CC50 at 48 h [4] | LIT1 mRNA expression versus untreated [5] | LIT1 Relative quantity [5] | decrease in the number of parasites at the M phase ([2]; versus untreated) | decrease in the number of promastigotes [3]
C[C@@H]1[C@H](O)[C@@H](C)/C=C/C=C/C=C/C=C/C=C/C=C/C=C/[C@H](O[C@@H]2O[C@H](C)[C@@H](O)[C@H](N)[C@@H]2O)C[C@@H]2O[C@](O)(C[C@@H](O)C[C@@H](O)[C@H](O)CC[C@@H](O)C[C@@H](O)CC(=O)O[C@H]1C)C[C@H](O)[C@H]2C(=O)O [Amphotericin B, reference compound] | 99% | 13.1% | significant increase | 90% | 15.75 ± 0.03 µM | 5 fold | 4.7 |  | 
O=c1cc(-c2ccc(O)cc2)oc2cc(O)cc(O)c12 [Apigenin, apigenin] | 75.8% | 8% |  |  | 237.9 ± 0.03 µM | no observed change | 0.8 | 6.8% | 50%
CC(=O)N(O)CCCCCNC(=O)CCC(=O)N(O)CCCCCNC(=O)CCC(=O)N(O)CCCCCN [Deferoxamine, deferoxamine, reference compound] | 81% | 7% |  |  | 26.88 ± 0.02 µM | 125 fold | 125 | 7.7% | 50%
O=C(/C=C/c1ccc(O)c(O)c1)O[C@H](Cc1ccc(O)c(O)c1)C(=O)O [Rosmarinic acid, rosmarinic acid] | 70% | 7.1% |  |  | 245.6 ± 0.3 µM | 3 fold | 3.0 | 8.0% | 50%
